Measured values published in patent US11464802B2, “3-substituted piperidine compounds for Cbl-b inhibition, and use thereof” (Nurix Therapeutics, Inc., priority 2019, dated 2022).

Tests used:
Cbl-b [1] = target: T1, Cbl-b (Homo sapiens (Human), UniProt Q13191); experiment: Cbl-b displacement assay (Cbl-b inhibition assay), Biological Example 12; assay type: binding; details: 0.125 nM Cbl-b final concentration (Low); Table 12-1; read-out: Cbl-b IC50 (Low)
Experimental: (§1) Candidate compounds were evaluated for their ability to bind and inhibit Cbl-b, an E3 ubiquitin-protein ligase, as evidenced by their ability to displace a fluorophore-labeled probe bound to Cbl-b.
(§2) The ability of candidate compounds to displace a known inhibitor and thereby inhibit Cbl-b activity was measured by monitoring the interaction of Cbl-b with a fluorophore-labeled probe in the presence of the candidate compound. A truncated variant of Cbl-b (UniProt number Q13191) containing residues 36-427 and an Avitag at its N-terminus was co-expressed with BirA biotin ligase and purified using a standard protocol (see Dou et al., Nature Structural and Molecular Biology 8: 982-987, 2013; Avidity LLC).
(§3) Fluorescently-labeled inhibitor probe was synthesized and tagged with BODIPY FL. Cbl-b displacement assays were performed in a 384-well plate at room temperature in a 10 μl reaction volume by pre-incubating 0.5 nM Cbl-b or 0.125 nM Cbl-b (final concentration, indicated as “High” and “Low”, respectively) in an assay buffer containing 20 mM HEPES pH 7.5, 150 mM NaCl, 0.01% Triton X-100, 0.01% BSA and 0.5 mM TCEP in the presence of a candidate compound in 1% DMSO (final concentration) for 1 hour. After incubation in the presence of the candidate compound, the plate was incubated for an additional 1 hour in the presence of an approximate EC40 binding saturation consisting of 150 nM fluorescently-labeled inhibitor probe and 2 nM Streptavidin-Terbium (Cisbio) (final concentrations). Following the 1 hour incubation, the plates were read for TR-FRET signal at 520/620 nM using an Envision plate reader (Perkin Elmer).
(§4) The resulting data for the Cbl-b activity assays were analyzed using standard methods to determine the IC50 values for the tested compounds.

[2] = system: primary human total T-cells; experiment: Primary human total T-cell activation: CD25 surface staining, Biological Example 9; assay type: cell-based; details: 48 hours, fold change over baseline; for fold induction at 0.3 µM: inhibitor 0.3 μM, Table 9-1; for fold induction at 1 µM: inhibitor 1 μM
[3] = system: primary human total T-cells; experiment: Primary human total T-cell activation: CD25 surface staining, Biological Example 13; assay type: cell-based; details: 48 hours, fold change over baseline; for fold induction at 0.3 µM: inhibitor 0.3 μM, Table 13-1; for fold induction at 1 µM: inhibitor 1 μM
Cbl-b [4] = target: T1, Cbl-b; experiment: Cbl-b displacement assay (Cbl-b inhibition assay), Biological Example 8; assay type: binding; details: 0.125 nM Cbl-b final concentration (Low); Table 8-1; read-out: Cbl-b IC50 (Low)
Experimental: as §1, §2, §3, §4

[5] = system: primary human total T-cells; experiment: Primary human total T-cell activation: IL-2 secretion, Biological Example 9; assay type: cell-based; details: 48 hours, fold change over baseline; for fold induction at 0.3 µM: inhibitor 0.3 μM, Table 9-1; for fold induction at 1 µM: inhibitor 1 μM
[6] = system: primary human total T-cells; experiment: Primary human total T-cell activation: IL-2 secretion, Biological Example 13; assay type: cell-based; details: 48 hours, fold change over baseline; for fold induction at 0.3 µM: inhibitor 0.3 μM, Table 13-1; for fold induction at 1 µM: inhibitor 1 μM
Cbl-b [7] = target: T1, Cbl-b; experiment: Cbl-b displacement assay (Cbl-b inhibition assay), TR-FRET probe displacement, Biological Example 1; assay type: binding
How it was run: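 TR-FRET displacement of a BODIPY FL-labelled inhibitor probe (150 nM, ~EC40) from biotin-Avitag truncated Cbl-b, detected via 2 nM streptavidin-Tb, 1 h, room temperature. Compound in 1% DMSO pre-incubated 1 h with Cbl-b at 0.5 nM (High) or 0.125 nM (Low) in 20 mM HEPES pH 7.5, 150 mM NaCl, 0.5 mM TCEP.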

[8] = system: primary human total T-cells; experiment: Primary human total T-cell activation: IL-2 secretion, Biological Example 2; assay type: cell-based; details: 48 hours, fold change over baseline; for fold induction at 0.3 µM: inhibitor 0.3 μM; for fold induction at 1 µM: inhibitor 1 μM; for fold induction at 3 µM: inhibitor 3 μM
[9] = system: primary human total T-cells; experiment: Primary human total T-cell activation: CD25 surface staining, Biological Example 2; assay type: cell-based; details: 48 hours, fold change over baseline; for fold induction at 0.3 µM: inhibitor 0.3 μM; for fold induction at 1 µM: inhibitor 1 μM; for fold induction at 3 µM: inhibitor 3 μM
[10] = anti-CD3/anti-CD28 co-stimulation
[11] = anti-CD3/anti-CD28 co-stimulation, Table 9-1, read-out: CD25 staining CD3/CD28 1 μM
[12] = anti-CD3 alone, Table 9-1, read-out: CD25 staining CD3 1 μM
[13] = anti-CD3/anti-CD28 co-stimulation, Table 13-1, read-out: CD25 staining CD3/CD28 1 μM
[14] = anti-CD3 alone, Table 13-1, read-out: CD25 staining CD3 1 μM
[15] = anti-CD3/anti-CD28 co-stimulation, Table 9-1, read-out: IL-2 secretion CD3/CD28 1 μM
[16] = anti-CD3 alone, Table 9-1, read-out: IL-2 secretion CD3 1 μM
[17] = anti-CD3/anti-CD28 co-stimulation, Table 13-1, read-out: IL-2 secretion CD3/CD28 1 μM
[18] = anti-CD3 alone, Table 13-1, read-out: IL-2 secretion CD3 1 μM
[19] = 0.125 nM Cbl-b final concentration (Low), read-out: Cbl-b activity IC50 (Low)
[20] = anti-CD3/anti-CD28 co-stimulation, read-out: IL-2 secretion CD3/CD28 1 μM
[21] = anti-CD3 alone, read-out: IL-2 secretion CD3 1 μM
[22] = anti-CD3/anti-CD28 co-stimulation, read-out: CD25 staining CD3/CD28 1 μM
[23] = anti-CD3 alone, read-out: CD25 staining CD3 1 μM
[24] = 0.5 nM Cbl-b final concentration (High), read-out: Cbl-b activity IC50 (High)
[25] = Cbl-b concentration (High or Low) not given, read-out: IC50 values in the Cbl-b inhibition assay of Biological Example 1

T1 sequence (Q13191 36-427): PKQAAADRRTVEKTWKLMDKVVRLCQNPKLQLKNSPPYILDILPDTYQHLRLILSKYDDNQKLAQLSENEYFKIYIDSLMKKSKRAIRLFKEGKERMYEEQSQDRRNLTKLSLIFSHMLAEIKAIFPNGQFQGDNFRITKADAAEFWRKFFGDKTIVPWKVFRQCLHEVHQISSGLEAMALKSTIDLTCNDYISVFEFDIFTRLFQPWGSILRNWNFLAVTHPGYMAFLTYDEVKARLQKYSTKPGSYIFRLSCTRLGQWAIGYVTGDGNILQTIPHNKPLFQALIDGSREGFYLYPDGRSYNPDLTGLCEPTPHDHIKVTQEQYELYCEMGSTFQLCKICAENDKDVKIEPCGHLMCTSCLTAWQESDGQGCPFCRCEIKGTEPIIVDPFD

IC50 (Cbl-b [1]) [nM]	IC50 (Cbl-b [4]) [nM]	IC50 (Cbl-b [7]; [19]) [nM]	IC50 (Cbl-b [7]; [24]) [nM]	SMILES	fold induction at 0.3 µM [8, 10]	fold induction at 1 µM [8, 20]	fold induction at 1 µM [8, 21]	fold induction at 3 µM ([8]; anti-CD3 alone)	fold induction at 0.3 µM [9, 10]	fold induction at 1 µM [9, 22]	fold induction at 1 µM [9, 23]	fold induction at 3 µM ([9]; anti-CD3 alone)	other results
> 5	> 5	–	–	Cn1cnnc1C(F)(F)[C@](C)(F)c1cccc(N2Cc3c(cc(CN4CCC(F)(F)C4)cc3C(F)(F)F)C2=O)c1 [Compound 58]	–	–	–	–	–	–	–	–	fold induction at 0.3 µM [2, 10]: < 1.24; fold induction at 1 µM [2, 11]: 1.25 to 1.39; fold induction at 1 µM [2, 12]: < 1.04; fold induction at 0.3 µM [3, 10]: < 1.24; fold induction at 1 µM [3, 13]: 1.25 to 1.39; fold induction at 1 µM [3, 14]: < 1.04; fold induction at 0.3 µM [5, 10]: < 10; fold induction at 1 µM [5, 15]: < 10; fold induction at 1 µM [5, 16]: < 0.33; fold induction at 0.3 µM [6, 10]: < 10; fold induction at 1 µM [6, 17]: < 10; fold induction at 1 µM [6, 18]: < 0.33
> 5	> 5	–	–	C[C@@H]1[C@@H](c2nncn2C)[C@H]1c1cccc(N2Cc3c(cccc3C(F)(F)F)C2=O)c1 [Compound 54]	–	–	–	–	–	–	–	–	fold induction at 0.3 µM [2, 10]: 1.25 to 1.39; fold induction at 1 µM [2, 11]: 1.25 to 1.39; fold induction at 1 µM [2, 12]: > 1.14; fold induction at 0.3 µM [3, 10]: 1.25 to 1.39; fold induction at 1 µM [3, 13]: 1.25 to 1.39; fold induction at 1 µM [3, 14]: > 1.14; fold induction at 0.3 µM [5, 10]: < 10; fold induction at 1 µM [5, 15]: < 10; fold induction at 1 µM [5, 16]: < 0.33; fold induction at 0.3 µM [6, 10]: < 10; fold induction at 1 µM [6, 17]: < 10; fold induction at 1 µM [6, 18]: < 0.33
–	–	1 to 5	–	C[C@H]1CCCN([C@H](C)c2cc3c(c(C4CC4)n2)CN(c2cccc(C4(Cc5nncn5C)COC4)c2)C3=O)C1 [Compound 52, 4-cyclopropyl-2-(3-(3-((4-methyl-4H-1,2,4-triazol-3-yl)methyl)oxetan-3-yl)phenyl)-6-((R)-1-((S)-3-methylpiperidin-1-yl)ethyl)-2,3-dihydro-1H-pyrrolo[3,4-c]pyridin-1-one]	> 15	> 15	> 0.66	> 0.66	> 1.39	> 1.39	> 1.14	> 1.14	IC50 (Cbl-b [7]; [25]): 1 to 5 nM
–	–	< 1	–	C[C@H](c1cc2c(c(C3CC3)n1)CN(c1cccc(C3(Cc4nncn4C)COC3)c1)C2=O)N1CCC(F)(F)[C@H](C)C1 [Compound 50, 4-cyclopropyl-6-((R)-1-((R)-4,4-difluoro-3-methylpiperidin-1-yl)ethyl)-2-(3-(3-((4-methyl-4H-1,2,4-triazol-3-yl)methyl)oxetan-3-yl)phenyl)-2,3-dihydro-1H-pyrrolo[3,4-c]pyridin-1-one]	> 15	> 15	> 0.66	> 0.66	> 1.39	> 1.39	> 1.14	> 1.14	–
–	–	< 1	–	C[C@@H]1CN([C@@H](C)c2cc3c(c(C4CC4)n2)CN(c2cccc(C4(Cc5nncn5C)COC4)c2)C3=O)CCC1(F)F [Compound 49, 4-cyclopropyl-6-((S)-1-((R)-4,4-difluoro-3-methylpiperidin-1-yl)ethyl)-2-(3-(3-((4-methyl-4H-1,2,4-triazol-3-yl)methyl)oxetan-3-yl)phenyl)-2,3-dihydro-1H-pyrrolo[3,4-c]pyridin-1-one]	> 15	> 15	> 0.66	> 0.66	> 1.39	> 1.39	> 1.14	> 1.14	–

Further lines, the compound ahead of its results:

SMILES	IC50 (Cbl-b [1]) [nM]	IC50 (Cbl-b [4]) [nM]	IC50 (Cbl-b [7]; [19]) [nM]	IC50 (Cbl-b [7]; [24]) [nM]	fold induction at 0.3 µM [8, 10]	fold induction at 1 µM [8, 20]	fold induction at 1 µM [8, 21]	fold induction at 3 µM ([8]; anti-CD3 alone)	fold induction at 0.3 µM [9, 10]	fold induction at 1 µM [9, 22]	fold induction at 1 µM [9, 23]	fold induction at 3 µM ([9]; anti-CD3 alone)	other results
C[C@@H]1CN(Cc2cc3c(c(C4CC4)n2)CN(c2cccc(C4(Cc5nncn5C)COC4)c2)C3=O)CCC1(F)F [Compound 34, (R)-4-Cyclopropyl-6-((4,4-difluoro-3-methylpiperidin-1-yl)methyl)-2-(3-(3-((4-methyl-4H-1,2,4-triazol-3-yl)methyl)oxetan-3-yl)phenyl)-2,3-dihydro-1H-pyrrolo[3,4-c]pyridin-1-one]	1 to 5	1 to 5	1 to 5	–	–	–	–	–	–	–	–	–	–
C[C@H]1CN(Cc2cc3c(c(C(F)(F)F)c2)CN(c2cccc(C4(Cc5nncn5C)COC4)c2)C3=O)CCC1(F)F [Compound 9, (S)-6-((4,4-difluoro-3-methylpiperidin-1-yl)methyl)-2-(3-(3-((4-methyl-4H-1,2,4-triazol-3-yl)methyl)oxetan-3-yl)phenyl)-4-(trifluoromethyl)isoindolin-1-one]	–	–	–	5.1 to 100	11 to 15	> 15	0.34 to 0.66	0.34 to 0.66	1.25 to 1.39	> 1.39	> 1.14	> 1.14	–
Cn1cnnc1CC1(c2cccc(N3Cc4c(cc(CN5CCC(F)(F)[C@@H](C#N)C5)cc4C(F)(F)F)C3=O)c2)COC1 [Compound 10, (R)-4,4-difluoro-1-((2-(3-(3-((4-methyl-4H-1,2,4-triazol-3-yl)methyl)oxetan-3-yl)phenyl)-3-oxo-7-(trifluoromethyl)isoindolin-5-yl)methyl)piperidine-3-carbonitrile]	–	–	–	< 1	11 to 15	11 to 15	< 0.33	< 0.33	1.25 to 1.39	1.25 to 1.39	1.05 to 1.14	1.05 to 1.14	IC50 (Cbl-b [7]; [25]): < 1 nM
Cn1cnnc1CC1(c2cccc(N3Cc4c(cc(CN5CCC(F)(F)[C@@H](CO)C5)cc4C(F)(F)F)C3=O)c2)COC1 [Compound 16, (R)-6-((4,4-difluoro-3-(hydroxymethyl)piperidin-1-yl)methyl)-2-(3-(3-((4-methyl-4H-1,2,4-triazol-3-yl)methyl)oxetan-3-yl)phenyl)-4-(trifluoromethyl)isoindolin-1-one]	–	–	–	1 to 5	< 10	< 10	< 0.33	< 0.33	< 1.24	< 1.24	< 1.04	1.05 to 1.14	–
C[C@H]1CCCN(Cc2cc3c(c(C(F)(F)F)c2)CN(c2cccc(C4(Cc5nncn5C)COC4)c2)C3=O)[C@H]1C (relative stereo) [Compound 19, 6-((cis-2,3-dimethylpiperidin-1-yl)methyl)-2-(3-(3-((4-methyl-4H-1,2,4-triazol-3-yl)methyl)oxetan-3-yl)phenyl)-4-(trifluoromethyl)isoindolin-1-one]	–	–	1 to 5	–	< 10	11 to 15	< 0.33	0.34 to 0.66	1.25 to 1.39	1.25 to 1.39	1.05 to 1.14	1.05 to 1.14	–
